In publication PMC9579956 (RSC Medicinal Chemistry, 2022):
Several values for one entry are separate records, joined by “and”; a condition that tells them apart may be missing. Equal values may be shown once.

Target: T1, Mycobacterium thermoresistible (Mtr) LpqY (Mycolicibacterium thermoresistibile, UniProt G7CES0)
Experiment: not given
Format: binding
Settings: MST re-evaluation of hits against LpqY

T1 sequence (G7CES0 29-471): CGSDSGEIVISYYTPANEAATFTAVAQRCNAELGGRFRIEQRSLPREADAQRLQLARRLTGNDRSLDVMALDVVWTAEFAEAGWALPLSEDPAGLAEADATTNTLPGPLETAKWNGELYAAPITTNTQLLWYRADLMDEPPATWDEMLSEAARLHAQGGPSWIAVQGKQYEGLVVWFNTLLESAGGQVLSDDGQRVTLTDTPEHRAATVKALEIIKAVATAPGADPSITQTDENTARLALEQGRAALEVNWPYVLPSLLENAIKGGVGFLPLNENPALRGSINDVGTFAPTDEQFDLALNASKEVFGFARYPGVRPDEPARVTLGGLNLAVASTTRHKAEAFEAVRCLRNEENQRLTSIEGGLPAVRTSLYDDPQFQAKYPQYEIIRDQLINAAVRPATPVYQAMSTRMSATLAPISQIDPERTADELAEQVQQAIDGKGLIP

Compound	Hit validation Binding score
COc1cc(NC(C)CCCN)c2ncccc2c1 (centres unmarked) [MMV000023, Primaquine, reference compound]	21.6
CCOC(=O)NC(=O)c1ccsc1NC(=O)c1nc2ccccc2s1 [MMV090930, TCA1, reference compound]	91.5
Nc1cccnc1Nc1ccc(Cl)cc1 [MMV676524, 2-N-(4-chlorophenyl)pyridine-2,3-diamine]	12.2
CC(=O)Oc1ccccc1C(=O)Nc1ncc([N+](=O)[O-])s1 [MMV688991, Nitazoxanide, reference compound]	20.0
COc1ccc(OC(C)C(=O)Nc2ccc(Cl)cc2C)cc1 (centres unmarked) [MMV202458, N-(4-chloro-2-methylphenyl)-2-(4-methoxyphenoxy)propanamide]	6.3
C[C@H]1c2cccc(O)c2C(=O)C2=C(O)[C@]3(O)C(=O)C(C(N)=O)=C(O)[C@@H](N(C)C)[C@@H]3[C@@H](O)[C@@H]21 [MMV000011, Doxycycline, reference compound]	6.5
COc1ccccc1C(C)NCC(=O)Nc1cc(C(F)(F)F)ccc1Cl (centres unmarked) [MMV020321, N-[2-chloro-5-(trifluoromethyl)phenyl]-2-[1-(2-methoxyphenyl)ethylamino]acetamide]	1.9
O=C(NCCc1c[nH]c2ccccc12)c1cc2ccccc2oc1=O [MMV676539, N-[2-(1H-indol-3-yl)ethyl]-2-oxochromene-3-carboxamide]	6.4
CNC(=O)c1nn(C)c2c1C(C)(C)Cc1cnc(Nc3ccc(N4CCN(C)CC4)cc3)nc1-2 [MMV676602, Milciclib, reference compound]	13.6

Same assay, conditions: quadruplicate, new batch of LpqY

Compound	Validation binding score (MST)
COc1cc(NC(C)CCCN)c2ncccc2c1 (centres unmarked) [MMV000023, Primaquine, reference compound]	21.6
CCOC(=O)NC(=O)c1ccsc1NC(=O)c1nc2ccccc2s1 [MMV090930, TCA1, reference compound]	> 5
COc1ccc(OC(C)C(=O)Nc2ccc(Cl)cc2C)cc1 (centres unmarked) [MMV202458, N-(4-chloro-2-methylphenyl)-2-(4-methoxyphenoxy)propanamide]	6.3 and > 5
C[C@H]1c2cccc(O)c2C(=O)C2=C(O)[C@]3(O)C(=O)C(C(N)=O)=C(O)[C@@H](N(C)C)[C@@H]3[C@@H](O)[C@@H]21 [MMV000011, Doxycycline, reference compound]	6.5
COc1ccccc1C(C)NCC(=O)Nc1cc(C(F)(F)F)ccc1Cl (centres unmarked) [MMV020321, N-[2-chloro-5-(trifluoromethyl)phenyl]-2-[1-(2-methoxyphenyl)ethylamino]acetamide]	1.9
O=C(NCCc1c[nH]c2ccccc12)c1cc2ccccc2oc1=O [MMV676539, N-[2-(1H-indol-3-yl)ethyl]-2-oxochromene-3-carboxamide]	6.4 and > 5
CNC(=O)c1nn(C)c2c1C(C)(C)Cc1cnc(Nc3ccc(N4CCN(C)CC4)cc3)nc1-2 [MMV676602, Milciclib, reference compound]	> 12

Same assay, conditions: quadruplicate, new batch of LpqY; listed as doxycycline

Compound	Validation binding score (MST)
C[C@H]1c2cccc(O)c2C(=O)C2=C(O)[C@]3(O)C(=O)C(C(N)=O)=C(O)[C@@H](N(C)C)[C@@H]3[C@@H](O)[C@@H]21 [MMV000011, Doxycycline, reference compound]	> 5

Target: T1, Mycobacterium thermoresistible (Mtr) LpqY
Experiment: Affinity studies with microscale thermophoresis (MST)
Format: binding
Settings: not given

Compound	Kd
CCOC(=O)NC(=O)c1ccsc1NC(=O)c1nc2ccccc2s1 [MMV090930, TCA1, reference compound]	14.2 ± 0.8 µM
CC(=O)Oc1ccccc1C(=O)Nc1ncc([N+](=O)[O-])s1 [MMV688991, Nitazoxanide, reference compound]	85.4 µM

Same assay, conditions: MST

Compound	fold increase of affinity (Kd) compared to trehalose	fold decrease in affinity compared to trehalose
CCOC(=O)NC(=O)c1ccsc1NC(=O)c1nc2ccccc2s1 [MMV090930, TCA1, reference compound]	~2.5 fold	
CC(=O)Oc1ccccc1C(=O)Nc1ncc([N+](=O)[O-])s1 [MMV688991, Nitazoxanide, reference compound]		~2 fold

Same assay, conditions: MST; Kd could not be determined

Compound	Binding to LpqY (qualitative)
COc1cc(NC(C)CCCN)c2ncccc2c1 (centres unmarked) [MMV000023, Primaquine, reference compound]	Concentration dependent binding
Nc1cccnc1Nc1ccc(Cl)cc1 [MMV676524, 2-N-(4-chlorophenyl)pyridine-2,3-diamine]	Concentration dependent binding
CNC(=O)c1nn(C)c2c1C(C)(C)Cc1cnc(Nc3ccc(N4CCN(C)CC4)cc3)nc1-2 [MMV676602, Milciclib, reference compound]	Concentration dependent binding

Target: T1, Mycobacterium thermoresistible (Mtr) LpqY
Experiment: not given
Format: binding
Settings: compound 100 μM, LpqY 500 nM, 10% DMSO, duplicate

Compound	Screen signal/noise ratio (MST S/N)
COc1cc(NC(C)CCCN)c2ncccc2c1 (centres unmarked) [MMV000023, Primaquine, reference compound]	10.0
CCOC(=O)NC(=O)c1ccsc1NC(=O)c1nc2ccccc2s1 [MMV090930, TCA1, reference compound]	29.5
Nc1cccnc1Nc1ccc(Cl)cc1 [MMV676524, 2-N-(4-chlorophenyl)pyridine-2,3-diamine]	6.4
CC(=O)Oc1ccccc1C(=O)Nc1ncc([N+](=O)[O-])s1 [MMV688991, Nitazoxanide, reference compound]	8.3
COc1ccc(OC(C)C(=O)Nc2ccc(Cl)cc2C)cc1 (centres unmarked) [MMV202458, N-(4-chloro-2-methylphenyl)-2-(4-methoxyphenoxy)propanamide]	5.5
C[C@H]1c2cccc(O)c2C(=O)C2=C(O)[C@]3(O)C(=O)C(C(N)=O)=C(O)[C@@H](N(C)C)[C@@H]3[C@@H](O)[C@@H]21 [MMV000011, Doxycycline, reference compound]	5.8
COc1ccccc1C(C)NCC(=O)Nc1cc(C(F)(F)F)ccc1Cl (centres unmarked) [MMV020321, N-[2-chloro-5-(trifluoromethyl)phenyl]-2-[1-(2-methoxyphenyl)ethylamino]acetamide]	5.5
O=C(NCCc1c[nH]c2ccccc12)c1cc2ccccc2oc1=O [MMV676539, N-[2-(1H-indol-3-yl)ethyl]-2-oxochromene-3-carboxamide]	6.2
CNC(=O)c1nn(C)c2c1C(C)(C)Cc1cnc(Nc3ccc(N4CCN(C)CC4)cc3)nc1-2 [MMV676602, Milciclib, reference compound]	9.5

Same assay, conditions: single dose MST screen against LpqY

Compound	Pathogen Box screen signal/noise ratio
COc1cc(NC(C)CCCN)c2ncccc2c1 (centres unmarked) [MMV000023, Primaquine, reference compound]	10.0
CCOC(=O)NC(=O)c1ccsc1NC(=O)c1nc2ccccc2s1 [MMV090930, TCA1, reference compound]	29.5
Nc1cccnc1Nc1ccc(Cl)cc1 [MMV676524, 2-N-(4-chlorophenyl)pyridine-2,3-diamine]	6.4
CC(=O)Oc1ccccc1C(=O)Nc1ncc([N+](=O)[O-])s1 [MMV688991, Nitazoxanide, reference compound]	8.3
COc1ccc(OC(C)C(=O)Nc2ccc(Cl)cc2C)cc1 (centres unmarked) [MMV202458, N-(4-chloro-2-methylphenyl)-2-(4-methoxyphenoxy)propanamide]	5.5
C[C@H]1c2cccc(O)c2C(=O)C2=C(O)[C@]3(O)C(=O)C(C(N)=O)=C(O)[C@@H](N(C)C)[C@@H]3[C@@H](O)[C@@H]21 [MMV000011, Doxycycline, reference compound]	5.8
COc1ccccc1C(C)NCC(=O)Nc1cc(C(F)(F)F)ccc1Cl (centres unmarked) [MMV020321, N-[2-chloro-5-(trifluoromethyl)phenyl]-2-[1-(2-methoxyphenyl)ethylamino]acetamide]	5.5
O=C(NCCc1c[nH]c2ccccc12)c1cc2ccccc2oc1=O [MMV676539, N-[2-(1H-indol-3-yl)ethyl]-2-oxochromene-3-carboxamide]	6.2
CNC(=O)c1nn(C)c2c1C(C)(C)Cc1cnc(Nc3ccc(N4CCN(C)CC4)cc3)nc1-2 [MMV676602, Milciclib, reference compound]	9.5

Tested on: not listed separately
Experiment: Solubility in aqueous buffer (observation in MST affinity assay)
Format: physicochemical
Settings: not given
From the text: The top five hits that were commercially available were selected for further characterisation and the binding affinities determined with LpqY (Fig. 4, Table S2 ^†).

Compound	Solubility in aqueous buffer
Nc1cccnc1Nc1ccc(Cl)cc1 [MMV676524, 2-N-(4-chlorophenyl)pyridine-2,3-diamine]	poor solubility
CNC(=O)c1nn(C)c2c1C(C)(C)Cc1cnc(Nc3ccc(N4CCN(C)CC4)cc3)nc1-2 [MMV676602, Milciclib, reference compound]	poor solubility
